Laboratory results reported in paper PMC9982066, “Inhibition of Ehrlichia chaffeensis infection by cell-permeable macrocyclic peptides that bind type IV secretion effector Etf-1” (PNAS Nexus, 2023).
Starred links: 1 amine or outer side, 2 acyl side, 3 side chain; linkers in the order of their positions; H or OH if unused. Positions of bridges follow the written chain, without caps; N, C: chain ends. Non-standard residues stand in square brackets, D forms with d. Residues, ends and D or L forms follow the SMILES beside them. Trimesoyl = O=C(c1cc(C(=O)[*:2])cc(C(=O)[*:3])c1)[*:1]; Phe(4-Cl) = N[C@@H](Cc1ccc(Cl)cc1)C(=O)O; Phe(4-F) = N[C@@H](Cc1ccc(F)cc1)C(=O)O; d2Nal = N[C@H](Cc1ccc2ccccc2c1)C(=O)O; Orn = NCCC[C@H](N)C(=O)O; Dap = NC[C@H](N)C(=O)O

Assays:
Etf-1 [1] = target: T1, Etf-1 (Ehrlichia chaffeensis, UniProt Q2GG12); assay: FP assay of Etf-1 binding with FAM-labeled peptides
T1 sequence (Q2GG12 entry or part of it): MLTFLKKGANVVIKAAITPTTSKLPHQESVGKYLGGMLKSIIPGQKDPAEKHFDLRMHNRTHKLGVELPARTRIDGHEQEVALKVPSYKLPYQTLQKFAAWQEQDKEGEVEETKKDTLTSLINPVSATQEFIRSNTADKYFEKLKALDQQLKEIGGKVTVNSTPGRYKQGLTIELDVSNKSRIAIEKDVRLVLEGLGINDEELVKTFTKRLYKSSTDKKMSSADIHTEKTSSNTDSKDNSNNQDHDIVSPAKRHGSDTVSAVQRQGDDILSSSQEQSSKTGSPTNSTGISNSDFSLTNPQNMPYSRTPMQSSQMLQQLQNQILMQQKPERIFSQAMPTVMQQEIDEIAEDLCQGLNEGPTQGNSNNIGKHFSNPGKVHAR
Experimental: The peptides were labeled at their C-terminus with carboxyfluorescein (FAM) through a β-Ala-β-Ala-Lys linker and evaluated for binding to Etf-1 by using a fluorescence polarization (FP) assay. […] This outcome is not unexpected, as screening OBOC libraries is often complicated by false positives, due to the presence of high ligand densities on library beads ([28]).
(§1) Fig. 2. Determination of binding affinity of Etf-1-binding peptides by FP assay. […] FAM-labeled peptide (50 nM) was incubated with serially diluted Etf-1 (starting from 25–30 μM in PBS, pH 7.4, supplemented with 5 mM DTT and 0.01% Triton X-100) for 1 h at RT. FP values were measured on a Tecan Infinite M1000 Pro plate reader. Titration curves (n ≥ 3) were fitted using GraphPad Prism and analyzed with TraceDrawer to calculate dissociation constants (KD). […] Data were analyzed using GraphPad Prism and fitted to a four-parameter variable slope equation to determine IC50 values.
Etf-1 and macrocyclic peptides were serially diluted in PBS supplemented with 5 mM DTT and 0.01% Triton X-100 (v/v). FAM-labeled peptides (50 nM) were prepared from a 10-μM DMSO stock and incubated with serially diluted Etf-1 for 1 h at room temperature (RT). Twenty microliters of the solutions were transferred to a black 384-well plate (Greiner Bio-One) and FP values were measured on a Tecan Infinite M1000 Pro plate reader with excitation and emission wavelengths at 470 and 535 nm, respectively. Titration curves (n ≥ 3) were fitted using GraphPad Prism v8.0 (GraphPad, La Jolla, CA, USA), and analyzed with TraceDrawer software v1.8 (Ridgeview Instruments AB, Uppsala, Sweden) to calculate the dissociation constant (KD, in nM).

THP-1 cells = assay: CellTiter-Glo luminescent cell viability assay; details: 2-day treatment
Excerpt: THP-1 (human promyelocytic leukemia) cells are widely used as E. chaffeensis infection studies of human monocytes in vitro, since initial characterization of infection ([31]).
Fig. 4. Cytotoxicity and proteolytic stability of Etf-1-binding peptides. (A) Effect of Etf-1-binding peptides on the viability of THP-1 cells as determined by CellTiter-Glo luminescent assay. Relative luminescence was plotted as function of the peptide concentration, with the cell viability of DMSO control group set as 100%. (B) Plot of the amount of intact peptide remaining as a function of the incubation time in 25% human serum. All values are normalized to that of peptide at time 0 (100%).
Cytotoxicity of Etf-1-binding peptides was examined by CellTiter-Glo luminescent cell viability assay (Promega, Madison, WI, USA). THP-1 cells were seeded in a transparent 96-well plate at a density of 5 × 10^3 cells/well (100 μL in each well) in RPMI-1640 containing 10% FBS and 1% antibiotics and cultured overnight. Etf-1-binding peptides were serially diluted in DPBS from a DMSO stock and added to the cells with the final concentration of 0–25 μM and a constant final concentration of 0.5% DMSO (v/v). After incubation at 37°C with 5% CO2 for 46 h, the plate was removed and pre-equilibrated to RT before the addition of 100 μL of the CellTiter-Glo 2.0 reagent to each well. The plate was incubated for 15 min on a rotary shaker in the dark, and the luminescence was detected (1-s integration time) on a Tecan Infinite M1000 Pro microplate reader. Relative luminescence was plotted as function of the peptide concentration, with the cell viability of DMSO control group set as 100%.

E. chaffeensis [2] = assay: E. chaffeensis infection of THP-1 cells, qPCR of 16S rRNA gene normalized to human actin; type: cell-based, Ehrlichia chaffeensis; details: 10 μM, 2 days, vs DMSO control
Experimental: Therefore, we investigated whether these Etf-1-binding peptides can prevent the proliferation of E. chaffeensis inside host cells. THP-1 cells were infected with E. chaffeensis, then treated with the peptides at 30 min post infection (pi) for 2 days. Intracellular infection and proliferation of E. chaffeensis inside host THP-1 cells were assessed using quantitative PCR (qPCR) analysis based on E. chaffeensis 16S rRNA gene normalized by human actin (ACT) gene.
Fig. 5. Effects of Etf-1-binding peptides on E. chaffeensis infection of THP-1 cells. Ehrlichia chaffeensis-infected THP-1 cells at […] were incubated with 10 μM of Etf-1-binding macrocyclic peptide or DMSO control for 2 days.
No antibiotic was used throughout the study.
DNA was extracted from each sample using Qiagen blood mini kit according to the manufacturer's instructions (Qiagen, Valencia, CA, USA), and qPCR analysis was performed in an MX3000P qPCR instrument (Stratagene, San Diego, CA, USA) using SYBR Green Real-Time PCR Master Mix (Thermo Fisher Scientific) according to the manufacturer's instructions. Five-fold serial dilutions of the control group were used to generate a standard curve to calculate the relative copy numbers of E. chaffeensis 16S rRNA normalized against human actin genes using the MX3000P software from Stratagene as described previously ([18], [44]).

E. chaffeensis [3] = assay: morphological examination of E. chaffeensis infection of THP-1 cells by Diff-Quik staining; details: THP-1 cells, Fig. S4 (with Figs. 5, S3)
Experimental: Ehrlichia chaffeensis Arkansas strain ([43]) was cultured in THP-1 cells (ATCC, Manassas, VA, USA) in RPMI 1640 medium (Corning, Manassas, VA, USA) supplemented with 8% FBS (Atlanta Biologicals, Flowery Branch, GA, USA) and 4 mM L-glutamine (at 37°C under 5% CO2 in a humidified atmosphere. THP-1 cells were seeded at 1 × 10^5 cells/well (in 1.5-mL RPMI 1640 culture medium with 8% FBS, 4 mM L-Gln) in a 12-well plate, then infected with host cell-free E. chaffeensis at an MOI (multiplicity of infection, or numbers of bacteria per cell) of ∼30. Cells were cultured in a humidified incubator with 5% CO2 and 95% air. No antibiotic was used throughout the study. At 0.5 h post infection (pi), cells were incubated with 1–10 μM of peptides or with an equal volume of DMSO (solvent control, 2 μL per mL medium). At 2 days pi, cells were washed with 1 mL of PBS, and two drops of cells were cytospun onto glass slides by a Shandon Cytospin 4 cytocentrifuge (Thermo Fisher Scientific), then fixed and stained with HEMA 3 staining solutions (Thermo Fisher Scientific). Ehrlichia infection was observed and images were captured by a SPOT RT digital camera (Diagnostic Instruments, Sterling Heights, MI, USA) coupled to a Nikon Eclipse E400 microscope (Nikon, Melville, NY, USA).

BECN1 binding to Etf-1 = assay: streptavidin magnetic beads pull-down of BECN1 with biotin-Etf-1, Western blot; type: biochemical; details: 10 µM peptide; for BECN1/Etf-1 Ratio: band intensities, DMSO control set as 1, Fig. 8B
Experimental: Fig. 8.
Streptavidin magnetic beads (15 µL, Pierce, Rockford, IL, USA) were washed with 1 mL of Bind/Wash buffer (25 mM Tris, pH 7.4; 250 mM NaCl, 0.1% Tween 20), and incubated with 0.15 µg ([…] final concentration) of biotinylated full-length Etf-1 protein in bind/wash buffer at 4°C overnight with end-to-end rotation. Beads were washed three times with Bind/Wash buffer, then incubated with Etf-1-binding macrocyclic peptides (10 µM) or DMSO control in Bind/Wash buffer at room temperature for 2 h. […] Beads were washed three times, and proteins were eluted from the beads with 50 µL of 2× SDS-sample buffer. […] Reacting bands were visualized with enhanced chemiluminescence by incubating the membrane with LumiGLO chemiluminescent reagent (Thermo Fisher Scientific). Images were captured by Amersham Imager 680 (GE Healthcare) and densitometry analysis was performed using ImagQuaNT (GE Healthcare). In each specimen, band intensities were normalized against those of actin as the loading control, and the ratios of the treatment group to the control group were calculated with the value in the control groups arbitrarily set as 1.0.

Etf-1 [4] = target: T1, Etf-1; assay: biochemical; type: binding; details: unlabeled competitor peptides vs FAM-B7-133-8
Experimental: as §1
Serial dilutions of competitor peptide (0-20 μM) were prepared from DMSO stock solutions into PBS containing 0.01% Triton-X100 and 2 mM TCEP and added to aliquots of the equilibrated Etf-1/probe solution. After incubation for 1 h in the dark and with gentle mixing, 20 μL of each sample was transferred into 384-well black-on-black microplates and FP was measured using a TECAN Infinite M1000 plate reader. Data were analyzed using GraphPad PRISM ver. 8.0 and fit to a four-parameter variable slope equation to determine IC50 values. IC50 values reported are the mean ± SD of n = 2–4 independent experiments.

| Compound | Kd (Etf-1 [1]) [nM] | cell viability (THP-1 cells; 20 μM) | cytotoxicity (THP-1 cells; up to 10 μM) | inhibition of E. chaffeensis infection (E. chaffeensis [2]) | E. chaffeensis infection (numbers and sizes of morulae) (E. chaffeensis [3]) | disruption of BECN1 binding to Etf-1 (BECN1 binding to Etf-1; compared to DMSO control) | BECN1/Etf-1 Ratio (BECN1 binding to Etf-1) | competition for Etf-1 binding (Etf-1 [4]) |
| --- | --- | --- | --- | --- | --- | --- | --- | --- |
| CC(C)C[C@H]1NC(=O)[C@H](CO)NC(=O)[C@H]2CCCN2C(=O)[C@H](CCC(N)=O)NC(=O)[C@H](Cc2c[nH]cn2)NC(=O)[C@H](Cc2ccc(O)cc2)NC(=O)c2cc3cc(c2)C(=O)NC[C@H](NC1=O)C(=O)N[C@@H](Cc1ccc(Cl)cc1)C(=O)N[C@H](Cc1ccc2ccccc2c1)C(=O)N[C@H](CCCNC(=N)N)C(=O)N[C@@H](CCCNC(=N)N)C(=O)N[C@H](CCCNC(=N)N)C(=O)N[C@@H](CCCNC(=N)N)C(=O)N[C@H](C(N)=O)CNC3=O [Peptide B7-16, TMA-Tyr-His-Gln-pro-Ser-leu-Dap-4-ClPhe-nal-arg-Arg-arg-Arg-Dap] (YHQ[dP]S[dL][Dap][Phe(4-Cl)][d2Nal][dR]R[dR]R[Dap]-NH2; linker N-7-14 via Trimesoyl) | 2000 ± 200 | slightly reduced the cell viability | no cytotoxicity | significantly inhibited | significantly inhibited | – | – | – |
| CC(C)[C@H]1NC(=O)[C@@H](CCC(=O)O)NC(=O)c2cc3cc(c2)C(=O)NC[C@H](NC(=O)CNC(=O)[C@H](Cc2c[nH]c4ccccc24)NC(=O)[C@H](Cc2ccc(O)cc2)NC1=O)C(=O)N[C@@H](Cc1ccccc1)C(=O)N[C@H](Cc1ccc2ccccc2c1)C(=O)N[C@H](CCCNC(=N)N)C(=O)N[C@@H](CCCNC(=N)N)C(=O)N[C@H](CCCNC(=N)N)C(=O)N[C@@H](CCCNC(=N)N)C(=O)N[C@H](C(N)=O)CNC3=O [Peptide C8, TMA-glu-val-Tyr-Trp-Gly-Dap-Phe-nal-arg-Arg-arg-Arg-Dap] ([dE][dV]YWG[Dap]F[d2Nal][dR]R[dR]R[Dap]-NH2; linker N-6-13 via Trimesoyl) | 5000 ± 1200 | – | – | significantly inhibited | significantly inhibited | disrupted BECN1 binding to Etf-1 | 0.14 | – |
| CC(C)C[C@H]1NC(=O)[C@H](Cc2ccc(F)cc2)NC(=O)[C@H](CCCN)NC(=O)[C@H](CC(=O)O)NC(=O)[C@H](CC(=O)O)NC(=O)[C@@H](C(C)C)NC(=O)[C@H](Cc2ccc(O)cc2)NC(=O)c2cc3cc(c2)C(=O)NC[C@H](NC1=O)C(=O)N[C@@H](Cc1ccc(Cl)cc1)C(=O)N[C@H](Cc1ccc2ccccc2c1)C(=O)N[C@H](CCCNC(=N)N)C(=O)N[C@@H](CCCNC(=N)N)C(=O)N[C@H](CCCNC(=N)N)C(=O)N[C@@H](CCCNC(=N)N)C(=O)N[C@H](C(N)=O)CNC3=O [Peptide B7-95-2, TMA-Tyr-val-Asp-Asp-Orn-Fpa-leu-Dap-4-ClPhe-nal-arg-Arg-arg-Arg-Dap] (Y[dV]DD[Orn][Phe(4-F)][dL][Dap][Phe(4-Cl)][d2Nal][dR]R[dR]R[Dap]-NH2; linker N-8-15 via Trimesoyl) | 740 ± 60 | – | – | significantly inhibited | significantly inhibited | – | – | Competition for Etf-1 binding was observed |
| CC(C)C[C@H]1NC(=O)[C@H](Cc2ccc(F)cc2)NC(=O)[C@@H](Cc2ccc(O)cc2)NC(=O)[C@@H](CC(C)C)NC(=O)[C@@H](C(C)C)NC(=O)[C@H](Cc2ccc(O)cc2)NC(=O)c2cc3cc(c2)C(=O)NC[C@H](NC1=O)C(=O)N[C@@H](Cc1ccc(Cl)cc1)C(=O)N[C@H](Cc1ccc2ccccc2c1)C(=O)N[C@H](CCCNC(=N)N)C(=O)N[C@@H](CCCNC(=N)N)C(=O)N[C@H](CCCNC(=N)N)C(=O)N[C@@H](CCCNC(=N)N)C(=O)N[C@H](C(N)=O)CNC3=O [Peptide B7-133-9, TMA-Tyr-val-leu-tyr-Fpa-leu-Dap-4-ClPhe-nal-arg-Arg-arg-Arg-Dap] (Y[dV][dL][dY][Phe(4-F)][dL][Dap][Phe(4-Cl)][d2Nal][dR]R[dR]R[Dap]-NH2; linker N-7-14 via Trimesoyl) | – | – | – | – | only slightly reduced | – | 1.19 | Competition for Etf-1 binding was observed |
| TMA-Tyr-Phg-Orn-ala-Ieu-Orn-leu-Dap-4-ClPhe-nal-arg-Arg-arg-Arg-Dap [Peptide B7-131-3] | – | – | – | – | – | – | – | Competition for Etf-1 binding was observed |
